Laboratory results: patent publication US9309226B2, “Crystalline form I of tyrosine kinase inhibitor dimaleate and preparation methods thereof” (Jiangsu Hengrui Medicine Co., Ltd., priority 2012, dated 2016)
Entries after “also recorded” stand apart in the source; their conditions may differ.

Columns and labels:
[1] = Stability of the solid placed open in the air under illumination, heating and humidity, HPLC analysis; format: physicochemical; conditions: for HPLC analysis result, 60° C.: heating 60° C.; for HPLC analysis result, RH 90%: humidity RH 90%; for HPLC analysis result, Light: illumination 4500 Lux
Experimental: The form I crystal of SHR1258 dimaleate prepared in Example 1 and the amorphous form of SHR1258 dimaleate prepared in Example 2 were placed open in the air to test the stability in various conditions including illumination (4500 Lux), heating (60° C.), and humidity (RH 90%).

[2] = Crystal form stability after grinding, heating and pressing, evaluated by X-ray diffraction and DSC; format: physicochemical; conditions: for Stability under grinding, pressure and heating: grinded, heated and pressed, X-ray diffraction and DSC
Excerpt: The form I crystal of SHR1258 dimaleate prepared in Example 1 was grinded, heated and pressed, then evaluated by X-ray diffraction and DSC patterns.

HPLC analysis result, 60° C. ([1]; day 0)	HPLC analysis result, 60° C. ([1]; day 5)	HPLC analysis result, 60° C. ([1]; day 10)	HPLC analysis result, RH 90% ([1]; day 0)	HPLC analysis result, RH 90% ([1]; day 5)	HPLC analysis result, RH 90% ([1]; day 10)	Stability under illumination, form I crystal compared with amorphous form [1]	HPLC analysis result, Light ([1]; day 0)	HPLC analysis result, Light ([1]; day 5)	HPLC analysis result, Light ([1]; day 10)	Stability under grinding, pressure and heating [2]	Stability under grinding, pressure and heating ([2]; listed as form I crystal of SHR1258 dimaleate)	Crystal (form after process) ([2]; grinding for 10 min under nitrogen atmosphere)	Crystal (form after process) ([2]; heating at 80° C. for 3 hours)	Crystal (form after process) ([2]; pressing into pieces)	Structure (SMILES)	Stability under high temperature and high moisture, compared with amorphous form ([1]; high temperature and high humidity, listed as form I crystal of SHR1258 dimaleate)
99.65%	98.13%	96.86%	99.65%	98.35%	98.35%	similar	99.65%	98.20%	97.91%	good stability	stable	Form I	Form I	Form I	CCOc1cc2ncc(C#N)c(Nc3ccc(OCc4ccccn4)c(Cl)c3)c2cc1NC(=O)/C=C/[C@H]1CCCN1C [Form I Crystal, (R, E)-N-(4-(3-chloro-4-(pyridin-2-yl-methoxy)phenylamino)-3-cyano-7-ethoxyquinolin-6-yl)-3-(1-methylpyrrolidino-2-yl)acrylamide dimaleate]	significantly better than the amorphous form; also recorded: more stable
98.41%	95.24%	93.71%	98.41%	96.95%	96.31%	similar	98.41%	96.96%	96.91%	–	–	–	–	–	CCOc1cc2ncc(C#N)c(Nc3ccc(OCc4ccccn4)c(Cl)c3)c2cc1NC(=O)/C=C/[C@H]1CCCN1C [Amorphous Form]	–
